# Literature values as cited in US8263645B2, “Disodium cromoglycate compositions and methods for administering same” (PARI Pharma GmbH, priority 2006, dated 2012).
# Like-named read-outs stand apart in the source and are kept apart here.
# Experiments:
# [1] = tested on: rat mast cells
# [2] = tested on: intermediate conductance chloride channels; conditions: channels activated following immunological stimulation
# [3] = timed urine collections
compound,measurement,setting,value
"O=C([O-])c1cc(=O)c2c(OCC(O)COc3cccc4oc(C(=O)[O-])cc(=O)c34)cccc2o1.[Na+].[Na+] [DSCG, disodium cromoglycate]",histamine release,[1]; following antigen challenge,inhibition of histamine release
same,influx of calcium ions,[1]; rat mast cells,inhibited the influx of calcium ions
same,chloride channel block,[2],block intermediate conductance chloride channels
same,lung deposition,[3]; 20 mg DSCG via Acron nebulizer (MMD=4.5 μm),1.5%
same,lung deposition,[3]; 20 mg DSCG via pMDI,0.3%
